Assays:
C-myc in KMS.12.BM cells = experiment: KMS.12.BM C-myc ELISA Assay; assay type: cell-based; conditions: Homo sapiens, 2 h
Description: KMS.12.BM C-myc ELISA Assay
KMS.12.BM cell line (human myeloma) was purchased from JCRB (Osaka, Japan) and maintained in RPMI with 10% FBS culture medium. To measure the C-myc inhibitory activity of the compounds, the KMS.12.BM cells are plated in the RPMI culture medium at 75000 cells/well/per 200 μL into a 96-well flat bottom polystyrene tissue culture plate (Corning through VWR, NJ), in the presence or absence of a concentration range of test compounds. After 2 h, cells are pelleted and lysed with Cell Extraction Buffer (BioSource, Carlsbad, Calif.) in the presence of protease inhibitors (Life Technologies, Grand Island, N.Y. and Sigma, St Louis, Mo.). Clarified lyses are tested in a C-myc commercial ELISA (Life Technologies, Grand Island, N.Y.). Compound inhibition is determined relative to cells cultured with no drug and the IC50 reported as the compound concentration required for 50% C-myc inhibition.

[1] = tested on: KMS.12.BM cell line (human myeloma); experiment: KMS.12.BM Cell Viability Assay; assay type: cell-based; conditions: 72 h, KMS.12.BM cells, 3 days, Cell Titer-GLO, read-out: KMS cellular IC50
Description: Example B1: KMS.12.BM Cell Viability Assay
KMS.12.BM cell line (human myeloma) was purchased from JCRB (Osaka, Japan) and maintained in RPMI with 10% FBS culture medium. To measure the cytotoxic activity of the compounds through ATP quantitation, the KMS.12.BM cells are plated in the RPMI culture medium at 5000 cells/well/per 100 μL into a 96-well polystyrene clear black tissue culture plate (Greiner-bio-one through VWR, NJ), in the presence or absence of a concentration range of test compounds. After 3 days, […] Cell Titer-GLO Luminescent (Promega, Madison, Wis.) cell culture agent is added to each well for 10 min. at room temperature to stabilize the luminescent signal. This determines the number of viable cells in culture based on quantitation of the ATP present, which signals the presence of metabolically active cells. Luminescence is measured with the Top Count 384 (Packard Bioscience through Perkin Elmer, Boston, Mass.). Compound inhibition is determined relative to cells cultured with no drug and the IC50 reported as the compound concentration required for 50% cell death.

Structure (SMILES)	IC50 (C-myc in KMS.12.BM cells)	IC50 [1]
Cc1noc(C)c1-c1ccc2nc(N3CCC(N(C)C(=O)C4CCC4)CC3)n3c2c1OC[C@@H]3c1ccccn1 [Example 20, N-{1-[(4S)-7-(3,5-dimethylisoxazol-4-yl)-4-pyridin-2-yl-4,5-dihydroimidazo[1,5,4-de][1,4]benzoxazin-2-yl]piperidin-4-yl}-N-methylcyclobutanecarboxamide]	100 to 1000 nM	≤ 100 nM
CCS(=O)(=O)N(C)C1CCN(c2nc3ccc(-c4c(C)noc4C)c4c3n2[C@@H](c2ccccn2)CO4)CC1 [Example 23, N-{1-[(4S)-7-(3,5-dimethylisoxazol-4-yl)-4-pyridin-2-yl-4,5-dihydroimidazo[1,5,4-de][1,4]benzoxazin-2-yl]piperidin-4-yl}-N-methylethanesulfonamide]	100 to 1000 nM	≤ 100 nM
Cc1noc(C)c1-c1ccc2nc(N3CCN(C(=O)C(C)(C)C)CC3)n3c2c1OC[C@@H]3c1ccccn1 [Example 26, (4S)-7-(3,5-dimethylisoxazol-4-yl)-2-[4-(2,2-dimethylpropanoyl)piperazin-1-yl]-4-pyridin-2-yl-4,5-dihydroimidazo[1,5,4-de][1,4]benzoxazine]	≤ 100 nM	≤ 100 nM
Cc1noc(C)c1-c1ccc2nc(N3CCN(C(=O)C4CC4)CC3)n3c2c1OC[C@@H]3c1ccccn1 [Example 27, (4S)-2-[4-(cyclopropylcarbonyl)piperazin-1-yl]-7-(3,5-dimcthylisoxazol-4-yl)-4-pyridin-2-yl-4,5-dihydroimidazo[1,5,4-de][1,4]benzoxazine]	≤ 100 nM	≤ 100 nM
Cc1noc(C)c1-c1ccc2nc(N3CCN(C(=O)C4CCC4)CC3)n3c2c1OC[C@@H]3c1ccccn1 [Example 28, (4S)-2-[4-(cyclobutylcarbonyl)piperazin-1-yl]-7-(3,5-dimethylisoxazol-4-yl)-4-pyridin-2-yl-4,5-dihydroimidazo[1,5,4-de][1,4]benzoxazine]	100 to 1000 nM	≤ 100 nM
COCC(=O)N1CCN(c2nc3ccc(-c4c(C)noc4C)c4c3n2[C@@H](c2ccccn2)CO4)CC1 [Example 29, (4S)-7-(3,5-dimethylisoxazol-4-yl)-2-[4-(methoxyacetyl)piperazin-1-yl]-4-pyridin-2-yl-4,5-dihydroimidazo[1,5,4-de][1,4]benzoxazine]	≤ 100 nM	≤ 100 nM

Results, then the compound that gave them:

IC50 (C-myc in KMS.12.BM cells)	IC50 [1]	Structure (SMILES)
≤ 100 nM	≤ 100 nM	Cc1noc(C)c1-c1ccc2nc(N3CCC(N(C)C(=O)N(C)C)CC3)n3c2c1OC[C@@H]3c1ccccn1 [Example 21, N-{1-[(4S)-7-(3,5-dimethylisoxazol-4-yl)-4-pyridin-2-yl-4,5-dihydroimidazo[1,5,4-de][1,4]benzoxazin-2-yl]piperidin-4-yl}-N,N′,N′-trimethylurea]
≤ 100 nM	≤ 100 nM	Cc1noc(C)c1-c1ccc2nc(N3CCC(N(C)S(C)(=O)=O)CC3)n3c2c1OC[C@@H]3c1ccccn1 [Example 22, N-{1-[(4S)-7-(3,5-dimethylisoxazol-4-yl)-4-pyridin-2-yl-4,5-dihydroimidazo[1,5,4-de][1,4]benzoxazin-2-yl]piperidin-4-yl}-N-methylmethanesulfonamide]
≤ 100 nM	≤ 100 nM	Cc1noc(C)c1-c1ccc2nc(N3CCC(N(C)S(=O)(=O)C4CC4)CC3)n3c2c1OC[C@@H]3c1ccccn1 [Example 24, N-{1-[(4S)-7-(3,5-dimethylisoxazol-4-yl)-4-pyridin-2-yl-4,5-dihydroimidazo[1,5,4-de][1,4]benzoxazin-2-yl]piperidin-4-yl}-N-methylcyclopropanesulfonamide]
≤ 100 nM	≤ 100 nM	CCCC(=O)N1CCN(c2nc3ccc(-c4c(C)noc4C)c4c3n2[C@@H](c2ccccn2)CO4)CC1 [Example 25, (4S)-2-(4-butyrylpiperazin-1-yl)-7-(3,5-dimethylisoxazol-4-yl)-4-pyridin-2-yl-4,5-dihydroimidazo[1,5,4-de][1,4]benzoxazine]
